According to ChEMBL document CHEMBL1201862, “PubChem BioAssay data set” (2004):
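Protocol summary: plate cells (96-well), add compound at 5 concentrations, incubate 48 h, interpolate endpoints linearly. Here, GI50 denotes the concentration required for 50% inhibition of growth.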 Calls of active or inactive are those of the source. No stated cut-off is given here; in the data, active = GI50 up to about 1.1 µM and inactive = higher. Where a SMILES comes first, the peptide text is derived from it. The star is where a group is joined. Boc = CC(C)(C)OC(=O)*

How the values were obtained:
Assay in all cases: NCI anticancer screen, dose series, 48 h
[1] = tested on: A549
[2] = tested on: ACHN
[3] = tested on: CCRF-CEM
[4] = tested on: HCC 2998
[5] = tested on: HCT-116
[6] = tested on: HCT-15
[7] = tested on: K562
[8] = tested on: NCI-H226
[9] = tested on: NCI/ADR-RES
[10] = tested on: OVCAR-3
[11] = tested on: RXF 393
[12] = tested on: SF-295
[13] = tested on: SK-MEL-5
[14] = tested on: SN12C
[15] = tested on: SNB-75
[16] = tested on: SW-620
[17] = tested on: T47D
[18] = tested on: UACC-257
[19] = tested on: UACC-62
[20] = tested on: HL-60

## COc1ccc(C2SCC(=O)N2NC2=NC(=O)CC(=O)N2)cc1 (configuration not stated)
[1]
  GI50: > 100 µM (inactive)
[2]
  GI50: > 100 µM (inactive)
[3]
  GI50: > 100 µM (inactive)
[4]
  GI50: > 100 µM (inactive)
[5]
  GI50: > 100 µM (inactive)
[6]
  GI50: > 100 µM
[7]
  GI50: > 100 µM (inactive)
[8]
  GI50: > 100 µM (inactive)
[9]
  GI50: > 100 µM (inactive)
[10]
  GI50: > 100 µM (inactive)
[11]
  GI50: > 100 µM (inactive)
[12]
  GI50: > 100 µM (inactive)
[13]
  GI50: > 100 µM (inactive)
[14]
  GI50: > 100 µM (inactive)
[15]
  GI50: > 100 µM (inactive)
[16]
  GI50: > 100 µM (inactive)
[17]
  GI50: > 100 µM (inactive)
[18]
  GI50: > 100 µM (inactive)
[19]
  GI50: > 100 µM (inactive)

## C\C(=N/N=C1/C(=C\N(C)C)C(=O)NC(=O)N1C)c1ccc(Cl)cc1
[1]
  GI50: 87.7 µM (inactive)
[2]
  GI50: > 100 µM (inactive)
[3]
  GI50: 15.8 µM (inactive)
[4]
  GI50: > 100 µM (inactive)
[5]
  GI50: 74.1 µM (inactive)
[6]
  GI50: > 100 µM
[7]
  GI50: > 100 µM (inactive)
[8]
  GI50: 68.5 µM (inactive)
[9]
  GI50: > 100 µM (inactive)
[10]
  GI50: > 100 µM (inactive)
[11]
  GI50: > 100 µM (inactive)
[12]
  GI50: 54.6 µM (inactive)
[13]
  GI50: > 100 µM (inactive)
[14]
  GI50: > 100 µM (inactive)
[15]
  GI50: 32.6 µM (inactive)
[16]
  GI50: 89.7 µM (inactive)
[17]
  GI50: 82.4 µM (inactive)
[18]
  GI50: > 100 µM (inactive)
[19]
  GI50: > 100 µM (inactive)

## O=C1C(Cl)=C(NCCc2ccc(O)cc2)C(=O)c2c(O)ccc(O)c21
[1]
  GI50: > 10 µM (inactive)
[2]
  GI50: > 10 µM (inactive)
[3]
  GI50: 4.34 µM (inactive)
[4]
  GI50: > 10 µM (inactive)
[5]
  GI50: 8.2 µM (inactive)
[6]
  GI50: > 10 µM
[20]
  GI50: 5.42 µM (inactive)
[7]
  GI50: > 10 µM (inactive)
[8]
  GI50: > 10 µM (inactive)
[9]
  GI50: 3.76 µM (inactive)
[10]
  GI50: 4.8 µM (inactive)
[12]
  GI50: 9.82 µM (inactive)
[13]
  GI50: 3.72 µM (inactive)
[14]
  GI50: > 10 µM (inactive)
[15]
  GI50: > 10 µM (inactive)
[16]
  GI50: > 10 µM (inactive)
[17]
  GI50: > 10 µM (inactive)
[18]
  GI50: 4.74 µM (inactive)
[19]
  GI50: 3.74 µM (inactive)

## CCOP(=O)(OCC)/C(C#N)=C/c1ccnc2ccccc12
[1]
  GI50: > 100 µM (inactive)
[2]
  GI50: 43.6 µM (inactive)
[4]
  GI50: > 100 µM (inactive)
[5]
  GI50: 3.27 µM (inactive)
[6]
  GI50: 21.3 µM
[8]
  GI50: 24.8 µM (inactive)
[9]
  GI50: 20.5 µM (inactive)
[10]
  GI50: 20.3 µM (inactive)
[11]
  GI50: 23.2 µM (inactive)
[12]
  GI50: 24.2 µM (inactive)
[13]
  GI50: 23.3 µM (inactive)
[14]
  GI50: 28.6 µM (inactive)
[15]
  GI50: 25.9 µM (inactive)
[16]
  GI50: 27.3 µM (inactive)
[17]
  GI50: 55 µM (inactive)
[18]
  GI50: 51.3 µM (inactive)
[19]
  GI50: 26.1 µM (inactive)

## COC(=O)C(C)NC(=O)C(CCSC)NC(=O)C(Cc1ccccc1)NC(=O)OC(C)(C)C (stereo not drawn) (Boc-Phe-Met-Ala-OMe; configuration not given here)
[1]
  GI50: > 100 µM (inactive)
[2]
  GI50: > 100 µM (inactive)
[3]
  GI50: > 100 µM (inactive)
[4]
  GI50: > 100 µM (inactive)
[5]
  GI50: > 100 µM (inactive)
[6]
  GI50: > 100 µM
[20]
  GI50: 63.2 µM (inactive)
[8]
  GI50: > 100 µM (inactive)
[9]
  GI50: > 100 µM (inactive)
[10]
  GI50: > 100 µM (inactive)
[12]
  GI50: > 100 µM (inactive)
[13]
  GI50: > 100 µM (inactive)
[14]
  GI50: > 100 µM (inactive)
[15]
  GI50: > 100 µM (inactive)
[16]
  GI50: > 100 µM (inactive)
[17]
  GI50: > 100 µM (inactive)
[18]
  GI50: > 100 µM (inactive)
[19]
  GI50: > 100 µM (inactive)

## O=[N+]([O-])c1ccc(Cc2nc3cc4ccccc4cc3[nH]2)cc1C(F)(F)F
[1]
  GI50: 13.9 µM (inactive)
[2]
  GI50: 15.8 µM (inactive)
[3]
  GI50: 24.3 µM (inactive)
[4]
  GI50: 16.6 µM (inactive)
[5]
  GI50: 13.9 µM (inactive)
[6]
  GI50: 12 µM
[20]
  GI50: 10 µM (inactive)
[7]
  GI50: 6.56 µM (inactive)
[9]
  GI50: 11.4 µM (inactive)
[10]
  GI50: 10.7 µM (inactive)
[11]
  GI50: 13.2 µM (inactive)
[12]
  GI50: 11.9 µM (inactive)
[13]
  GI50: 10.7 µM (inactive)
[14]
  GI50: 18.7 µM (inactive)
[15]
  GI50: 14.9 µM (inactive)
[16]
  GI50: 19.8 µM (inactive)
[17]
  GI50: 3.33 µM (inactive)
[18]
  GI50: 14.1 µM (inactive)

## CC1NC(=O)C2Cc3ccc(O)c(c3)Oc3ccc(cc3)C(O)C(C(=O)N2C)N(C)C(=O)C(C)NC(=O)C(Cc2ccc(O)cc2)N(C)C(=O)C(C)NC1=O (configuration not stated)
[1]
  GI50: 41 µM (inactive)
[2]
  GI50: > 100 µM (inactive)
[3]
  GI50: 9.71 µM (inactive)
[4]
  GI50: 22.2 µM (inactive)
[5]
  GI50: 9.64 µM (inactive)
[6]
  GI50: > 100 µM
[20]
  GI50: 13.9 µM (inactive)
[7]
  GI50: > 100 µM (inactive)
[9]
  GI50: > 100 µM (inactive)
[10]
  GI50: 25.3 µM (inactive)
[12]
  GI50: > 100 µM (inactive)
[13]
  GI50: 31.6 µM (inactive)
[14]
  GI50: > 10 µM (inactive)
[15]
  GI50: 3.67 µM (inactive)
[16]
  GI50: 23.4 µM (inactive)
[17]
  GI50: 15.9 µM (inactive)
[18]
  GI50: 13.6 µM (inactive)
[19]
  GI50: 19.5 µM (inactive)

## CCOC(=O)c1nc2cc(F)cc(F)c2[nH]c1=O
[1]
  GI50: > 100 µM (inactive)
[2]
  GI50: > 100 µM (inactive)
[3]
  GI50: > 100 µM (inactive)
[4]
  GI50: > 100 µM (inactive)
[5]
  GI50: > 100 µM (inactive)
[6]
  GI50: > 100 µM
[20]
  GI50: > 100 µM (inactive)
[7]
  GI50: > 100 µM (inactive)
[8]
  GI50: > 100 µM (inactive)
[9]
  GI50: > 100 µM (inactive)
[10]
  GI50: > 100 µM (inactive)
[12]
  GI50: > 100 µM (inactive)
[13]
  GI50: > 100 µM (inactive)
[14]
  GI50: > 100 µM (inactive)
[15]
  GI50: > 100 µM (inactive)
[16]
  GI50: > 100 µM (inactive)
[17]
  GI50: > 100 µM (inactive)
[18]
  GI50: > 100 µM (inactive)
[19]
  GI50: > 100 µM (inactive)

## CCOC(=O)Cn1c(=O)ccn(COCCO)c1=O
[1]
  GI50: > 100 µM (inactive)
[2]
  GI50: > 100 µM (inactive)
[3]
  GI50: > 100 µM (inactive)
[4]
  GI50: > 100 µM (inactive)
[6]
  GI50: > 100 µM
[20]
  GI50: > 100 µM (inactive)
[7]
  GI50: > 100 µM (inactive)
[9]
  GI50: > 100 µM (inactive)
[10]
  GI50: > 100 µM (inactive)
[11]
  GI50: > 100 µM (inactive)
[13]
  GI50: > 100 µM (inactive)
[14]
  GI50: > 100 µM (inactive)
[15]
  GI50: > 100 µM (inactive)
[16]
  GI50: > 100 µM (inactive)
[17]
  GI50: > 100 µM (inactive)
[18]
  GI50: > 100 µM (inactive)

## COC1CC(OC2C(C)OC(OC3C(C)OC(OC4C(C)OC(O[C@H]5CC[C@@]6(C)C(=CC[C@]7(O)[C@@H]6C[C@@H](OC(=O)/C=C(\C)C(C)C)[C@@]6(C)[C@]7(O)CC[C@@]6(O)C(C)=O)C5)CC4OC)CC3OC)CC2OC)OC(C)C1O (some centres not stated)
[1]
  GI50: > 12.5 µM (inactive)
[2]
  GI50: > 12.5 µM (inactive)
[3]
  GI50: > 12.5 µM (inactive)
[4]
  GI50: > 12.5 µM (inactive)
[5]
  GI50: > 12.5 µM (inactive)
[6]
  GI50: > 12.5 µM
[20]
  GI50: 5.11 µM (inactive)
[7]
  GI50: 10.9 µM (inactive)
[8]
  GI50: > 12.5 µM (inactive)
[9]
  GI50: > 12.5 µM (inactive)
[10]
  GI50: > 12.5 µM (inactive)
[12]
  GI50: > 12.5 µM (inactive)
[13]
  GI50: 11.2 µM (inactive)
[14]
  GI50: > 12.5 µM (inactive)
[15]
  GI50: > 12.5 µM (inactive)
[16]
  GI50: > 12.5 µM (inactive)
[17]
  GI50: > 12.5 µM (inactive)
[18]
  GI50: > 12.5 µM (inactive)
[19]
  GI50: > 12.5 µM (inactive)
